# Key:
# [1] = tested on: TNBC cell line xenografts (CDXs); details: BRGS-HIS mice with TNBC CDXs; cited from earlier work
# [2] = tested on: 3D tumor-immune culture from a patient with renal cell carcinoma (tumor cells and matched PBMCs); experiment: 3D tumor-immune culture, Keytruda treatment compared to CD3 activation, live cell imaging over 5 days (Example 17); format: cell-based, human; details: for tumor-containing hydrogel dome volume: 10 μg/mL Keytruda vs CD3-activated/control culture, evident by Day 1
# Experimental: A) An aliquot of pembrolizumab (25 mg/mL) was diluted in PBS to achieve a working stock of 1 mg/mL. 2 μL of this stock is added to the tumor-immune culture to achieve a final dose of 10 μg/mL. In parallel, 2 μL of a 1 mg/mL stock of human anti-IgG4 is added to a negative control tumor-immune culture.
# A tumor sample and matched blood sample from a patient with renal cell carcinoma were prepared according to the foregoing Examples and methods. Briefly, PBMCs were isolated from blood and CD8^+ and CD8^− cells were separated, stained, and recombined as previously described. PBMCs were either cultured with 1 μg/mL anti-CD3 or 10 μg/mL Keytruda for 18 hours. Tumors were dissociated and stained and 10,000 cells were encapsulated in hydrogel as previously described. At TO, 100,000 PBMCs from each condition were added to tumor cultures. Live cell imaging, using confocal microscopy, was conducted each day for 5 days and images were analyzed using the disclosed computer vision pipeline. The presented data are from single replicates obtained from one experiment.
# [3] = tested on: kidney tumor cells with PBMCs (1:5); experiment: 3D tumor-immune co-culture, combination therapies, change in tumor cell numbers over 3 days (Example 19); details: normalized to Day 0, staurosporine 5 μM, axitinib 10 μM + pembrolizumab 10 μg/mL, n=3
compound,measurement,setting,value
nivolumab,time after treatment until significant effect on tumor volume relative to vehicle control,[1],≥ 10 days
pembrolizumab [Keytruda],clustering of hydrogel-infiltrated CD8+ PBMCs,"[2]; 10 μg/mL Keytruda or 1 μg/mL anti-CD3, over 5 days, single replicate",more clustering over time
same,rate of dome volume shrinking,"[2]; 10 μg/mL Keytruda vs CD3-activated sample, Day 1",higher at Day 1
same,viability of tumor cells / tumor cell death,"[2]; 10 μg/mL Keytruda vs CD3-activated sample, evident by Day 2, single replicate",increased tumor cell death
same,speed of CD8+ PBMCs infiltrated into the hydrogel (migration peak speed),"[2]; 10 μg/mL Keytruda vs CD3-activated sample, over 5 days, single replicate",higher CD8^+ cell migration peak speed
same,tumor-containing hydrogel dome volume,[2]; single replicate,dome volume shrinks more
same,tumor-containing hydrogel dome volume,"[2]; single replicate, listed as Keytruda/pembrolizumab","measurable, and noticeable, and may be statistically significantly different, by one day after adding the treatment"
same,clustering of hydrogel-infiltrated CD8- and CD8+ PBMCs together,"[2]; 10 μg/mL Keytruda vs CD3 activation, throughout 5 days, single replicate",clustered together more
same,infiltration of CD8+ PBMCs into the tumor-containing hydrogel (absolute counts),"[2]; PBMCs cultured 18 hours with 10 μg/mL Keytruda vs 1 μg/mL anti-CD3, evident as early as Day 1, single replicate",increased infiltration of CD8^+ cells into the tumor-containing hydrogel
CN[C@@H]1C[C@H]2O[C@@](C)([C@@H]1OC)n1c3ccccc3c3c4c(c5c6ccccc6n2c5c31)C(=O)NC4 [Staurosporine],change in tumor cell count,[3],decreased tumor cell count the most

# From patent US20260056187A1, “METHODS OF FORMING PATIENT-DERIVED 3D CELL CULTURES FOR TRACKING LIVE IMMUNE-TUMOR INTERACTIONS” (OUROTECH, INC., priority 2022, published 2026)
